What was measured:
CCR4 [1] = target: T1, CCR4 (Homo sapiens, UniProt P51679); experiment: CEM cell chemotaxis (migration) assay to CCL22 (MDC) in HBSS buffer with 0.1% BSA; assay type: cell-based; details: CEM cells in HBSS with 0.1% BSA; recombinant human CCL22 0.1 nM; 37° C. 60 minutes
T1 construct: CEM Cells Endogenous Express CCR4; endogenous in cells; host or cells: CEM cells
T1 sequence (P51679 1-360): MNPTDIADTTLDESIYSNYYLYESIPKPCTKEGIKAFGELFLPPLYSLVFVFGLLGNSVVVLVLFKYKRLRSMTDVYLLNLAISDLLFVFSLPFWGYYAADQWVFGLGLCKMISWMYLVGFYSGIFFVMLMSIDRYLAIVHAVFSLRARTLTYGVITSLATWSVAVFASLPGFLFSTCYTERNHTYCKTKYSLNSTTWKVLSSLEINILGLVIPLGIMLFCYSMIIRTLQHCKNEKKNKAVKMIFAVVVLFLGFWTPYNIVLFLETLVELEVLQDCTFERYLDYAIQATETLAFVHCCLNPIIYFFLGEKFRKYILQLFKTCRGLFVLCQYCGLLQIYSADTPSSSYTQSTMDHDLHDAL
Text: (§1) CEM Cells Endogenous Express CCR4
(§2) A chemotaxis assay can be used to determine the efficacy of potential receptor antagonists at blocking the migration mediated through chemokine receptors, such as CCR4. This assay is routinely performed using the ChemoTX® microchamber system with a 5 μm pore-sized polycarbonate membrane.
(§3) HBSS: CEM Cells are collected by centrifugation at 400×g at room temperature, then suspended at 5 million/ml in Hanks' Balanced Salt Solution (HBSS) buffer with 0.1% BSA. The compound being tested is serially diluted from a maximum final concentration of 10 μM (or an equivalent volume of its solvent (DMSO)) and is then added to the cell/buffer mixture. Separately, recombinant human CCL22 (MDC) at its EC50 concentration (0.1 nM) is placed in the lower wells of the ChemoTX® plate. The 5-μm (pore size) polycarbonate membrane was placed onto the plate, and 20 μL of the cell/compound mixture is transferred onto each well of the membrane. The plates are incubated at 37° C. for 60 minutes, after which the polycarbonate membranes are removed and 5 μl of the DNA-intercalating dye CyQUANT (Invitrogen, Carlsbad, CA) is added to the lower wells. The amount of fluorescence, corresponding to the number of migrated cells, is measured using a Spectrafluor Plus plate reader (TECAN, San Jose, CA).

CCR4 [2] = target: T1, CCR4; experiment: CEM cell chemotaxis (migration) assay to CCL22 (MDC) in 100% Fetal Bovine Serum (FBS); assay type: cell-based; details: CEM cells in 100% FBS with 1% HEPEs; recombinant human CCL22 0.1 nM; 37° C. 60 minutes
Text: as §1, §2
as §3, with “FBS:” for “HBSS:”, “100% Fetal Bovine Serum (FBS)” for “Hanks' Balanced Salt Solution (HBSS) buffer”, “1% HEPEs.” for “0.1% BSA.”

Row | Compound | IC50 (CCR4 [1]) [nM] | IC50 (CCR4 [2]) [nM]
1 | C[C@@H](Nc1nc(N2CCN(C(=O)C(C)(C)N)CC2)ncc1Cl)c1ccc(Cl)cc1Cl [Example 1.040] | < 100 | < 100
2 | C[C@@H](Nc1nc(N2CCN(C(=O)[C@H]3CCCN3C3CC(C)(C(=O)O)C3)CC2)ncc1Cl)c1ccc(Cl)cc1Cl (stereo partly drawn) [Example 1.152] | 100 to 1000 | > 1000
3 | C[C@@H](Nc1nc(C2=CCN(C(=O)[C@H]3CCCN3)CC2)ncc1Cl)c1ccc(Cl)cc1Cl [Example 1.027] | < 100 | < 100
4 | CC(Nc1nc(N2CCN(C(=O)[C@H]3CCC(=O)N3)CC2)ncc1Cl)c1cc(F)c(Cl)cc1Cl (stereo partly drawn) [Example 1.082] | < 100 | < 100
5 | C[C@@H](Nc1nc(N2CCN(C(=O)C[C@H]3CCCN3)CC2)ncc1Cl)c1ccc(Cl)cc1Cl [Example 1.032] | < 100 | < 100
6 | CC(C)N(C(=O)C1CCNC1)C1CCN(c2ncc(Cl)c(N[C@H](C)c3ccc(Cl)cc3Cl)n2)CC1 (stereo partly drawn) [Example 1.062] | > 1000 | > 1000
7 | C[C@@H](Nc1nc(N2CCN(C(=O)N(C)CCN(C)C)CC2)ncc1Cl)c1ccc(Cl)cc1Cl [Example 1.072] | < 100 | < 100
8 | C[C@@H](Nc1nc(N2CCN(C(=O)[C@H]3CCC(=O)N3)CC2)ncc1Cl)c1ccccn1 [Example 1.256] | > 1000 | > 1000
9 | C[C@@H](Nc1nc(N2CCN(S(=O)(=O)CCN(C)C)CC2)ncc1Cl)c1ccc(Cl)cc1Cl [Example 1.016] | < 100 | 100 to 1000
10 | C[C@@H](Nc1nc(N2CCN(C(=O)[C@H]3CCC(=O)N3)CC2)ncc1Cl)c1cccc(Cl)c1 [Example 1.075] | > 1000 | 100 to 1000
11 | Cc1nc(N2CCN(C(=O)[C@H]3CCCN3)CC2)nc(N[C@H](C)c2ccc(Cl)cc2Cl)c1Cl [Example 1.049] | < 100 | < 100
12 | C[C@@H](Nc1nc(C2=CCN(C(=O)CN(C)C)CC2)ncc1Cl)c1ccc(Cl)cc1Cl [Example 1.020] | < 100 | < 100
13 | C[C@@H](Nc1ncc(C(F)(F)F)c(N2CCN(C(=O)[C@H]3CCCN3)CC2)n1)c1ccc(Cl)cc1Cl [Example 1.006] | < 100 | < 100
14 | C[C@@H](Nc1nc(N2CCN(C(=O)[C@H]3CCC(=O)N3)CC2)ncc1Cl)c1c(F)cc(Cl)cc1Cl [Example 1.250] | < 100 | 
15 | C[C@@H](Nc1nc(N2CCN(C(=O)[C@H]3CCN(C)C3)CC2)ncc1C#N)c1ccc(Cl)cc1Cl [Example 1.243] |  | < 100
16 | Cc1cc(Cl)ccc1[C@@H](C)Nc1nc(N2CCN(C(=O)[C@H]3CCC(=O)N3)CC2)ncc1F [Example 1.089] |  | 100 to 1000
17 | C[C@@H](Nc1nc(N2CCN(C(=O)C3(N)COC3)CC2)ncc1Cl)c1ccc(Cl)cc1Cl [Example 1.212] |  | > 1000
18 | C[C@@H]1CN(c2ncc(Cl)c(N[C@H](C)c3ccc(Cl)cc3Cl)n2)CCN1C(=O)[C@H]1CN(C)C(=O)N1 [Example 1.104] |  | < 100
19 | C[C@@H](Nc1nc(N2CCN(C(=O)C[C@H]3CCCN3)CC2)ncc1OC(F)F)c1ccc(Cl)cc1Cl [Example 1.166] |  | < 100
20 | C[C@@H](Nc1nc(N2CC[C@H](NC(=O)[C@H]3CCCN3)[C@H](O)C2)ncc1F)c1ccc(Cl)cc1Cl [Example 1.090] |  | < 100
21 | COc1cnc(N2CCC(N(C)C(=O)[C@H]3CCCN3)CC2)nc1N[C@H](C)c1ccc(Cl)cc1Cl [Example 1.170] |  | < 100
22 | COc1nc(N2CCN(C(=O)[C@H]3CCCN3)CC2)nc(N[C@H](C)c2ccc(Cl)cc2Cl)c1Cl [Example 1.175] |  | < 100
23 | C[C@@H](Nc1nc(N2CCN(C(=O)[C@H]3CCCN3C(N)=O)CC2)ncc1Cl)c1ccc(Cl)cc1Cl [Example 1.138] |  | 100 to 1000
24 | C[C@@H](Nc1nc(N2CCN(C(=O)CN3CCCC3)CC2)ncc1Cl)c1ccc(Cl)cc1Cl [Example 1.192] |  | < 100
25 | C[C@@H](Nc1nc(N2CCN(C(=O)[C@H]3CC(F)(F)CN3)CC2)ncc1Cl)c1ccc(Cl)cc1Cl [Example 1.146] |  | 100 to 1000

Row | Compound | IC50 (CCR4 [1]) [nM] | IC50 (CCR4 [2]) [nM]
26 | C[C@@H](Nc1ccnc(N2CCN(C(=O)[C@H]3CCC(=O)N3)CC2)n1)c1ccc(Cl)cc1Cl [Example 1.116] |  | < 100
27 | C[C@@H](Nc1nc(N2CCN(C(=O)[C@H]3CCN(C)C3)CC2)ncc1Cl)c1ccc(Cl)cc1Cl [Example 1.143] |  | < 100
28 | C[C@@H](Nc1nc(N2CCN(C(=O)C[C@@H]3CCCN3)CC2)ncc1Cl)c1ccc(Cl)cc1Cl [Example 1.180] |  | < 100
29 | C[C@H](Nc1nc(N2CCN(C(=O)[C@H]3CCC(=O)N3)CC2)ncc1Cl)c1ncc(Cl)cc1Cl [Example 1.255] |  | < 100
30 | C[C@@H](Nc1nc(N2CC[C@H](NC(=O)[C@H]3CCN(C)C3)[C@@H](O)C2)ncc1Cl)c1ccc(Cl)cc1Cl [Example 1.206] |  | < 100
31 | COc1cnc(N2CCC(NC(=O)[C@H]3CCCN3)CC2)nc1N[C@H](C)c1ccc(Cl)cc1Cl [Example 1.176] |  | < 100
32 | Cc1nc(N2CCN(C(=O)[C@H]3CCC(=O)N3)CC2)nc(N[C@H](C)c2c(F)cc(Cl)cc2Cl)c1Cl [Example 1.260] |  | < 100
33 | COc1cnc(N2CCN(C(=O)[C@H]3CC[C@@H](C)N3)CC2)nc1N[C@H](C)c1ccc(Cl)cc1Cl [Example 1.173] |  | < 100
34 | Cc1nc(N2CCN(C(=O)[C@H]3CN(C)C(=O)N3)CC2)nc(N[C@H](C)c2ccc(Cl)cc2Cl)c1Cl [Example 1.097] |  | < 100
35 | C[C@@H](Nc1nc(N2CCN(C(=O)[C@H]3CCCN3)CC2)ncc1F)c1ccc(Cl)cc1Cl [Example 1.157] |  | < 100
36 | C[C@@H](Nc1nc(N2CC[C@H](NC(=O)[C@H]3CCCN3)[C@@H](O)C2)ncc1OC(F)F)c1ccc(Cl)cc1Cl [Example 1.155] |  | < 100
37 | C[C@H]1CC[C@H](C(=O)N2CCN(c3ncc(Cl)c(N[C@H](C)c4ccc(Cl)cc4Cl)n3)CC2)N1 [Example 1.204] |  | < 100
38 | C[C@@H](Nc1nc(N2CCC(NC(=O)[C@H]3C[C@H](F)CN3)CC2)ncc1Cl)c1ccc(Cl)cc1Cl [Example 1.137] |  | 100 to 1000
39 | C[C@@H](Nc1nc(N2CCN(C(=O)[C@H]3CCC(=O)N3)CC2)ncc1OCC(F)(F)F)c1ccc(Cl)cc1Cl [Example 1.099] |  | 100 to 1000
40 | C[C@@H](Nc1nc(C2=CCN(C(=O)[C@H]3CCC(=O)N3)CC2)ncc1Cl)c1ccc(Cl)cc1Cl [Example 1.162] |  | < 100
41 | C[C@@H](Nc1nc(N2CCC(O[C@@H]3CNC[C@H]3F)CC2)ncc1Cl)c1ccc(Cl)cc1Cl [Example 1.186] |  | < 100
42 | C[C@@H](Nc1nc(N2CCN(C(=O)C3(C)CCN(C)C3)CC2)ncc1Cl)c1ccc(Cl)cc1Cl (stereo partly drawn) [Example 1.231] |  | < 100
43 | C[C@@H](Nc1nc(N2CCC(O[C@H]3CCN(C)C3)CC2)ncc1Cl)c1ccc(Cl)cc1Cl [Example 1.178] |  | < 100
44 | C[C@@H](Nc1nc(N2CCN(C(=O)CCN3CCCC3)CC2)ncc1Cl)c1ccc(Cl)cc1Cl [Example 1.185] |  | < 100
45 | C[C@@H](Nc1nc(N2CCN(C(=O)[C@H]3CCC(=O)N3)[C@@H](CO)C2)ncc1Cl)c1ccc(Cl)cc1Cl [Example 1.111] |  | < 100
46 | C[C@@H](Nc1nc(N2CCN(C(=O)[C@H]3CCC(=O)N3)CC2)nc(N)c1Cl)c1ccc(Cl)cc1Cl [Example 1.084] |  | < 100
47 | C[C@@H](Nc1nc(C2CCN(C(=O)[C@H]3CCC(=O)N3)CC2)ncc1Cl)c1ccc(Cl)cc1Cl [Example 1.160] |  | > 1000
48 | CC(C)Oc1cnc(N2CCN(C(=O)C[C@@H]3CCCN3)CC2)nc1N[C@H](C)c1ccc(Cl)cc1Cl [Example 1.161] |  | < 100
49 | C[C@@H](Nc1nc(N2CC[C@H](NC(=O)[C@H]3COCCN3)[C@@H](O)C2)ncc1Cl)c1ccc(Cl)cc1Cl [Example 1.125] |  | 100 to 1000
50 | C[C@@H](Nc1nc(N2CCC([C@@H]3CCCN(CCC(=O)O)C3)CC2)ncc1Cl)c1ccc(Cl)cc1Cl [Example 1.220] |  | < 100

Reference: patent publication US20230382894A1, “CCR4 ANTAGONISTS” (CHEMOCENTRYX, INC., priority 2022, published 2023)
